Measurements as given in article PMC7461557, “Multicopy Suppressor Analysis of Strains Lacking Cytoplasmic Peptidyl-Prolyl cis/trans Isomerases Identifies Three New PPIase Activities in Escherichia coli That Includes the DksA Transcription Factor” (International Journal of Molecular Sciences, 2020).

What was measured:
Cmk = molecular target: T1, Cmk (Escherichia coli, UniProt P0A6I0); experiment: chymotrypsin-coupled PPIase assay, absorbance […] nm; format: biochemical; details: inhibitor; substrate N-Suc-Ala-Ala-cis-Pro-Phe-p-nitroanilide; two-fold molar excess of FK506, 5 min preincubation; 35 mM HEPES pH 8.0, 10 °C
T1 construct: ASKA clone in pCA24N, Ni-NTA purified from E. coli lacking six PPIs (SR18292)
T1 sequence (P0A6I0 1-227): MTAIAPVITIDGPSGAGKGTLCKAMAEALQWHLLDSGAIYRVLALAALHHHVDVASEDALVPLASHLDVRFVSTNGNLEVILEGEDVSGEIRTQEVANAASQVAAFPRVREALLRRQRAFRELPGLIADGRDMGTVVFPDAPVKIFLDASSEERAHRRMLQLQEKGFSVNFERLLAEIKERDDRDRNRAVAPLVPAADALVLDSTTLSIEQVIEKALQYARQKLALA

MetL = molecular target: T2, MetL (Escherichia coli, UniProt P00562); experiment: chymotrypsin-coupled PPIase assay, absorbance […] nm; format: biochemical; details: inhibitor; substrate N-Suc-Ala-Ala-cis-Pro-Phe-p-nitroanilide; two-fold molar excess of FK506, 5 min preincubation; 35 mM HEPES pH 8.0, 10 °C
T2 construct: ASKA clone in pCA24N, Ni-NTA purified from E. coli lacking six PPIs (SR18292)
T2 sequence (P00562 whole entry): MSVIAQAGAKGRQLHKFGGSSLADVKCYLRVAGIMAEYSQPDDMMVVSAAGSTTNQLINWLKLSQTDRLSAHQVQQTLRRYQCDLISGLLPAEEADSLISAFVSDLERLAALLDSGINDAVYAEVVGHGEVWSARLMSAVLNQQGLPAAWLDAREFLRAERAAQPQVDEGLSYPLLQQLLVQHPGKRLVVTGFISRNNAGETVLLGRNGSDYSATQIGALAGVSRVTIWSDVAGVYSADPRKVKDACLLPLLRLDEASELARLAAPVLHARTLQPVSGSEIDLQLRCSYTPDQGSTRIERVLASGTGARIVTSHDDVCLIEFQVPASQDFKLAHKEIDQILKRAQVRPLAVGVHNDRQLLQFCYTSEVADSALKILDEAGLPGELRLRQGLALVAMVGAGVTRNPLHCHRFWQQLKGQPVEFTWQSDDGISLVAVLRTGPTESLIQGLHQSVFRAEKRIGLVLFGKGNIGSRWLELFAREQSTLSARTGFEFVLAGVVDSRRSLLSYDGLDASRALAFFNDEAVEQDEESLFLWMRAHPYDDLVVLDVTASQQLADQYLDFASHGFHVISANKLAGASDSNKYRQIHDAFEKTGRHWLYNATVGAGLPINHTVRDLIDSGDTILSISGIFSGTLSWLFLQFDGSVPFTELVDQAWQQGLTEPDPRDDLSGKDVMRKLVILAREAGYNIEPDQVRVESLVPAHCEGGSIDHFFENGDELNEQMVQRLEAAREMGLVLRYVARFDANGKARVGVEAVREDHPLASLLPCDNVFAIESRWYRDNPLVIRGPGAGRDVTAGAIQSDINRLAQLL

C=CC[C@@H]1/C=C(\C)C[C@H](C)C[C@H](OC)[C@H]2O[C@@](O)(C(=O)C(=O)N3CCCC[C@H]3C(=O)O[C@H](/C(C)=C/[C@@H]3CC[C@@H](O)[C@H](OC)C3)[C@H](C)[C@@H](O)CC1=O)[C@H](C)C[C@@H]2OC [FK506]
chymotrypsin-coupled PPIase assay, absorbance 390 nm (Cmk): inhibition of the PPIase activity of Cmk by the two-fold molar excess of FK506
chymotrypsin-coupled PPIase assay, absorbance 390 nm (MetL): inhibition of the PPIase activity of MetL by the two-fold molar excess of FK506
